# Experimental data as given in US8974737B2, “Space Disinfection” (Saban Ventures PTY Limited, priority 2005, dated 2015).
# Read-outs that look alike come from different tables or passages of the source.
# What was measured:
# Aspergillus niger [1] = settings: 8 cubic meters
# Excerpt: (§1) The components of the device included a nebuliser array, (6×2 cm diameter transducers in a circular array), a heater element, a first and second fan and a dehumidifier system. The dehumidifier used had been a small air conditioning unit positioned appropriately within the space. The purpose of the first fan was to propel nanoparticles from the heater into the space and the purpose of the second fan was to ensure an equal distribution of the aerosol to all surfaces within the space.
# (§2) Tests were conducted in an 8 cubic meter volume of cubic shape.
# (§3) Samples were coated with an inoculum at levels of approximately log 6 and air dried for 2 hours on the plastic petri dish (Techno-Plas, Australia) in a laminar flow cabinet. The samples were placed in various positions in the room including on the walls, floor and ceiling.
# (§4) Unless otherwise stated, the operating conditions were: • Solution: 35% peroxide • Temp: 25 degrees • RH: fluctuated 45% to ˜65%. Sometimes 75% • Nebulizer array 2.4 MHz • Peroxide vapour: 300-500 ppm • Air flow post heater: 400-600 cubic meters per hour. • Heater Temp: 80-90 degrees • Peroxide delivery: Optimally approximately 0.75 gram per cubic meter per minute, ie […] for the 8 cubic meter room.
# [2] = test system: Bacillus stearothermophillus; settings: at 550 ppm; on both the walls and floor
# Method: as §3, §4
# Aspergillus niger [3] = settings: 69 cubic meters, peroxide vapour 500 ppm, contact time 30 min
# Method: as §3, §4
# Pseudomonas aeruginosa = settings: 8 cubic meters
# Excerpt: as §1, §2, §3, §4
# The dishes and lids are specifically designed to allow gas exchange with an incubator environment while keeping the dish free from external microbial contamination.
# [4] = peroxide vapour 250 ppm, contact time 5 min
# [5] = peroxide vapour 250 ppm, contact time 10 min
# [6] = peroxide vapour 250 ppm, contact time 20 min
# [7] = peroxide vapour 250 ppm, contact time 30 min
# [8] = peroxide vapour 500 ppm, contact time 5 min
# [9] = peroxide vapour 500 ppm, contact time 10 min
# [10] = peroxide vapour 500 ppm, contact time 20 min
# [11] = peroxide vapour 500 ppm, contact time 30 min
# [12] = Table 4, peroxide vapour 350 ppm, contact time 15 min
# [13] = Table 4, peroxide vapour 550 ppm, contact time 15 min
# [14] = Table 4, peroxide vapour 550 ppm, contact time 20 min
# [15] = Table 4, peroxide vapour 550 ppm, contact time 30 min
# [16] = closed carriers, peroxide vapour 300 ppm, contact time 20 min
# [17] = open carriers, peroxide vapour 50 ppm, contact time 5 min
# [18] = open carriers, peroxide vapour 50 ppm, contact time 10 min
# [19] = open carriers, peroxide vapour 50 ppm, contact time […]
# [20] = open carriers, peroxide vapour 200 ppm, contact time 5 min
# [21] = open carriers, peroxide vapour 200 ppm, contact time 10 min
# [22] = open carriers, peroxide vapour 200 ppm, contact time 20 min
# [23] = open carriers, peroxide vapour 200 ppm, contact time […]
# [24] = open carriers, peroxide vapour 350 ppm, contact time 5 min
# [25] = open carriers, peroxide vapour 350 ppm, contact time 10 min
# [26] = open carriers, peroxide vapour 350 ppm, contact time 20 min
# [27] = open carriers, peroxide vapour 350 ppm, contact time […]
compound,measurement,setting,value
"OO [Peroxide, hydrogen peroxide]",Wall (log reduction) Closed carriers,Aspergillus niger [1]; [4],5.1 log reduction
same,Wall (log reduction) Open carriers,Aspergillus niger [1]; [4],6.3 log reduction
same,Wall (log reduction) Closed carriers,Aspergillus niger [1]; [5],6.3 log reduction
same,Wall (log reduction) Open carriers,Aspergillus niger [1]; [5],6.3 log reduction
same,Wall (log reduction) Closed carriers,Aspergillus niger [1]; [6],6.3 log reduction
same,Wall (log reduction) Open carriers,Aspergillus niger [1]; [6],6.3 log reduction
same,Wall (log reduction) Closed carriers,Aspergillus niger [1]; [7],6.3 log reduction
same,Wall (log reduction) Open carriers,Aspergillus niger [1]; [7],6.3 log reduction
same,Wall (log reduction) Closed carriers,Aspergillus niger [1]; [8],6.9 log reduction
same,Wall (log reduction) Open carriers,Aspergillus niger [1]; [8],6.9 log reduction
same,Wall (log reduction) Closed carriers,Aspergillus niger [1]; [9],6.9 log reduction
same,Wall (log reduction) Open carriers,Aspergillus niger [1]; [9],6.9 log reduction
same,Wall (log reduction) Closed carriers,Aspergillus niger [1]; [10],6.9 log reduction
same,Wall (log reduction) Open carriers,Aspergillus niger [1]; [10],6.9 log reduction
same,Wall (log reduction) Closed carriers,Aspergillus niger [1]; [11],6.9 log reduction
same,Wall (log reduction) Open carriers,Aspergillus niger [1]; [11],6.9 log reduction
same,Floor (log reduction) Closed carriers,Aspergillus niger [1]; [12],6.1 log reduction
same,Floor (log reduction) Open carriers,Aspergillus niger [1]; [12],6.5 log reduction
same,Wall (log reduction) Closed carriers,Aspergillus niger [1]; [12],5.7 log reduction
same,Wall (log reduction) Open carriers,Aspergillus niger [1]; [12],5.9 log reduction
same,Floor (log reduction) Closed carriers,Aspergillus niger [1]; [13],6.6 log reduction
same,Floor (log reduction) Open carriers,Aspergillus niger [1]; [13],6.7 log reduction
same,Wall (log reduction) Closed carriers,Aspergillus niger [1]; [13],6.3 log reduction
same,Wall (log reduction) Open carriers,Aspergillus niger [1]; [13],6.7 log reduction
same,Floor (log reduction) Closed carriers,Aspergillus niger [1]; [14],7.5 log reduction
same,Floor (log reduction) Open carriers,Aspergillus niger [1]; [14],7.5 log reduction
same,Wall (log reduction) Closed carriers,Aspergillus niger [1]; [14],7.5 log reduction
same,Wall (log reduction) Open carriers,Aspergillus niger [1]; [14],7.5 log reduction
same,Floor (log reduction) Closed carriers,Aspergillus niger [1]; [15],7.5 log reduction
same,Floor (log reduction) Open carriers,Aspergillus niger [1]; [15],7.5 log reduction
same,Wall (log reduction) Closed carriers,Aspergillus niger [1]; [15],6.6 log reduction
same,Wall (log reduction) Open carriers,Aspergillus niger [1]; [15],7.5 log reduction
same,log reductions,[2],greater than 6 log reductions
same,Floor (log reduction),Aspergillus niger [3]; closed,6.7 log reduction
same,Wall (log reduction),Aspergillus niger [3]; closed,6.7 log reduction
same,Floor (log reduction),Aspergillus niger [3]; open,6.7 log reduction
same,Wall (log reduction),Aspergillus niger [3]; open,6.7 log reduction
same,Wall (log reduction),"Pseudomonas aeruginosa; closed carriers, peroxide vapour 300 ppm, contact time 5 min",6.7 log reduction
same,Wall (log reduction),"Pseudomonas aeruginosa; closed carriers, peroxide vapour 300 ppm, contact time 10 min",6.3 log reduction
same,Floor (log reduction),Pseudomonas aeruginosa; [16],5.8 log reduction
same,Wall (log reduction),Pseudomonas aeruginosa; [16],6.7 log reduction
same,Floor (log reduction),Pseudomonas aeruginosa; [17],TNTC
same,Wall (log reduction),Pseudomonas aeruginosa; [17],3.6 log reduction
same,Floor (log reduction),Pseudomonas aeruginosa; [18],TNTC
same,Wall (log reduction),Pseudomonas aeruginosa; [18],4.3 log reduction
same,Floor (log reduction),Pseudomonas aeruginosa; [19],TNTC
same,Wall (log reduction),Pseudomonas aeruginosa; [19],3.5 log reduction
same,Floor (log reduction),Pseudomonas aeruginosa; [20],5.2 log reduction
same,Wall (log reduction),Pseudomonas aeruginosa; [20],5.7 log reduction
same,Floor (log reduction),Pseudomonas aeruginosa; [21],3.4 log reduction
same,Wall (log reduction),Pseudomonas aeruginosa; [21],5.7 log reduction
same,Floor (log reduction),Pseudomonas aeruginosa; [22],5.7 log reduction
same,Wall (log reduction),Pseudomonas aeruginosa; [22],5.7 log reduction
same,Floor (log reduction),Pseudomonas aeruginosa; [23],4.4 log reduction
same,Wall (log reduction),Pseudomonas aeruginosa; [23],5.7 log reduction
same,Floor (log reduction),Pseudomonas aeruginosa; [24],6.1 log reduction
same,Wall (log reduction),Pseudomonas aeruginosa; [24],5.8 log reduction
same,Floor (log reduction),Pseudomonas aeruginosa; [25],6.1 log reduction
same,Wall (log reduction),Pseudomonas aeruginosa; [25],6.1 log reduction
same,Floor (log reduction),Pseudomonas aeruginosa; [26],6.1 log reduction
same,Wall (log reduction),Pseudomonas aeruginosa; [26],6.1 log reduction
same,Floor (log reduction),Pseudomonas aeruginosa; [27],6.1 log reduction
same,Wall (log reduction),Pseudomonas aeruginosa; [27],4.4 log reduction
